Laboratory results: patent US11446393B2, “Non-viral gene delivery agent comprising lipopeptide (LP) compounds” (MONASH UNIVERSITY, priority 2017, dated 2022)
Peptide text beside a SMILES is read from it. * marks the point of attachment. Stearoyl = CCCCCCCCCCCCCCCCCC(=O)*

System: plasmid DNA
Experiment: Dye exclusion assay (SYBR Gold) of DNA condensation by lipopeptide
Format: physicochemical
Conditions: charge ratio 2.5:1; n=3, p<0.05; data not shown
Procedure: To determine the charge ratio at which the LP effectively condenses the DNA, a dye exclusion assay was carried out. In a 96-well black-bottomed plate, plasmid DNA (20 μg/mL) was prepared in 12 mM Tris-HCl (pH 7.4) buffer. To each well containing DNA, 0.05 μL of 10,000× concentrated stock of intercalating SYBR® Gold (Thermo Fisher Scientific) was added and the plate was incubated at room temperature for 15 minutes. The LP was then added to the wells at a series of charge ratios from 0.5:1 to 5:1. A well containing 20 μg/mL of naked DNA and SYBR® Gold was used as a 100% fluorescence intensity standard (ie no LP added). A blank well containing only the SYBR® Gold in buffer was used to subtract from the fluorescent readings of each sample. The plate was incubated at room temperature for 30 minutes for particle formation. The fluorescence (excitation 492 nm, emission 540 nm) of each sample was measured using a Wallac Envision 2102 Multilabel Reader (PerkinElmer, Waltham, Mass., United States of America).

Compound: CCCCCCCCCCCCCCCCCC(=O)NC(CS)C(=O)NC(Cc1cnc[nH]1)C(=O)NC(Cc1cnc[nH]1)C(=O)NC(CCCCN)C(=O)NC(CCCCN)C(=O)NC(CCCCN)C(=O)O (stereo not drawn) [stearoyl-CH2K3, stearoyl-Cys-His-His-Lys-Lys-Lys] (Stearoyl-CHHKKK-OH; configuration not given here)
- Fluorescence of LP/DNA particles after addition of dithiothreitol (DTT) to the LP before complexation: significantly increased the degree of fluorescence
